# According to patent publication US5849735A, “Tricyclic benzazepine vasopressin antagonists” (American Cyanamid Company, priority 1995, dated 1998):
# pIC50: −log10 of the molar value.
# Experiments:
# [1] = target: T1, vasopressin V2 receptor (rat kidney medullary) (Rattus norvegicus, UniProt Q00788); test: Binding Assay to Rat Kidney Medullary V2 Receptors; details: for inhibition at 10 µM: rat kidney V2
# T1 construct: Medullary tissues from rat kidneys are dissected out; from tissue; host or cells: rat kidney medulla membranes
# Protocol: Binding Assay to Rat Kidney Medullary V2 Receptors
# Medullary tissues from rat kidneys are dissected out, cut into small pieces and soaked in a […] sodium chloride solution containing 1.0 mM EDTA with many changes of the liquid phase, until the solution is clear of blood. […] The tissue is homogenized in a 0.25M sucrose solution containing 1.0 mM EDTA and 0.1 mM PMSF using a Potter-Elvehjem homogenizer with a teflon pestle. The homogenate is filtered through several layers (4 layers) of cheese cloth. The filtrate is rehomogenized using a dounce homogenizer, with a tight fitting pestle. The final homogenate is centrifuged at 1500×g for 15 min. The nuclear pellet is discarded and the supernatant fluid recentrifuged at 40,000×g for 30 min. The resulting pellet formed contains a dark inner part with the exterior, slightly pink. The pink outer part is suspended in a small amount of 50.0 mM Tris.HCl buffer, pH 7.4. The protein content is determined by the Lowry's method (Lowry et al., J. Biol. Chem., 1953). The membrane suspension is stored at -70° C., in 50.0 mM Tris.HCl, containing 0.2% inactivated BSA and 0.1 mM PMSF in aliquots of 1.0 ml containing 10.0 mg protein per ml of suspension until sue in subsequent binding experiments.
# For binding experiments, the following is added in ml volume to wells of a 96 well format of a microtiter plate: 100.0 ml of 100.0 mM Tris.HCl buffer containing 0.2% heat inactivated BSA, 10.0 mM MgCL2 and a mixture of protease inhibitors: leupeptin, 1.0 mg %; aprotinin, 1.0 mg % 1,10-phenanthroline, 2.0 mg %; trypsin inhibitor, and 0.1 mM PMSF, 20.0 ml of [^3 H] Arginine^8, vasopressin (S.A. 75.0 Ci/mmole) at 0.8 nM and the reaction initiated by the addition of 80.0 ml of tissue membranes (200.0 mg tissue protein). The plates are left undisturbed on the bench top for 120 minutes to reach equilibrium. Non-specific binding is assessed in the presence of 1.0 mM of unlabeled ligand, added in 20 ml volume. For test compounds, these are solubilized in 50% dimethylsulfoxide (DMSO) and added in 20.0 ml volume to a final incubation volume of […]. Upon completion of binding, the content of each well is filtered off, using a Brandel® cell Harvester (Gaithersburg, Md.). The radioactivity trapped on the filter disk by the ligand-receptor complex is assessed by liquid scintillation counting in a Parkard LS Counter, with an efficiency of 65% for tritium.
# [2] = target: T2, human V2 vasopressin receptor (Homo sapiens, UniProt P30518); test: Binding to Membranes of Mouse Fibroblast Cell Line (LV-2) Transfected with the cDNA Expressing the Human V2 Vasopressin Receptor
# T2 construct: expressed in transfected cells; host or cells: mouse fibroblast cell line LV-2
# Protocol: Binding to Membranes of Mouse Fibroblast Cell Line (LV-2) Transfected with the cDNA Expressing the Human V2 Vasopressin Receptor
# Flasks of 175 ml capacity, continuing attached cells grown to confluence, are cleared of culture medium by aspiration. The flasks containing the attached cells are rinsed with 2×5 ml of phosphate buffered saline (PBS) and the liquid aspirated off each time. […] The protein content is determined by the Lowry method and the receptor membranes are suspended in 50.0 mM Tris.HCl buffer containing 0.1 mM phenylmethylsulfonylfluoride (PMSF) and 0.2% bovine serum albumin (BSA) to give 2.5 mg receptor protein per ml of suspension.
# For binding experiments, the following is added in ml volume to wells of a 96 well format of a microtiter plate: 100.0 ml of 100.0 mM Tris.HCl buffer containing 0.2% heat inactivated BSA, 10.0 mM MgCl2 and a mixture of protease inhibitors: leupeptin, 1.0 mg %; aprotinin, 1.0 mg %; 1,10-phenanthroline, 2.0 mg %; trypsin inhibitor, 10.0 mg % and 0.1 mM PMSF., 20.0 ml of [^3 H] […] Non specific binding is assessed in the presence of 1.0 mM of unlabeled ligand, added in 20 ml volume. […] The radioactivity trapped on the filter disk by the ligand-receptor complex is assessed by liquid scintillation counting in a Packard LS Counter, with an efficiency of 65% for tritium.
# T1 sequence (Q00788 whole entry): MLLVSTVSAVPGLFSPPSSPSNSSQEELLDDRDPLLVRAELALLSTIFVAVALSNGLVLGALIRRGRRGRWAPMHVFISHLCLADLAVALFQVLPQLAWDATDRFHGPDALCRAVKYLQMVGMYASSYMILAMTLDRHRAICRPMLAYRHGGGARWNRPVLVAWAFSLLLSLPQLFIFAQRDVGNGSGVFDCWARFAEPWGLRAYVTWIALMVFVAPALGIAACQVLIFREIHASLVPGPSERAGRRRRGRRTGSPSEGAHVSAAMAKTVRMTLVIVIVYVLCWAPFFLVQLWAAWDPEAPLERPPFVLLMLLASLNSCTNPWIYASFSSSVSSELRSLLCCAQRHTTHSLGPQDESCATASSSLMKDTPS
# T2 sequence (P30518 whole entry): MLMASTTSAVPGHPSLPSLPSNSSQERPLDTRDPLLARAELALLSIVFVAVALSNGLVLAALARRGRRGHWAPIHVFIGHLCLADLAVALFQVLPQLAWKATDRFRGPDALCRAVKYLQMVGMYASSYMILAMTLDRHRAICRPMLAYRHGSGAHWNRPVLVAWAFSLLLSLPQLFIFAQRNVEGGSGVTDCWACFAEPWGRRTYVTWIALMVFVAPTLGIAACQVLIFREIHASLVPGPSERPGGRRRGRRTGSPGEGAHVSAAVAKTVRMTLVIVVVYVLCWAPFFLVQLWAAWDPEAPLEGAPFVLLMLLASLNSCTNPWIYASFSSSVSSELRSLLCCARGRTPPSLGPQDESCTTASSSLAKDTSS
SMILES,inhibition at 10 µM [1] [%],other results
"Cc1ccc(F)cc1C(=O)Nc1ccc(C(=O)N2Cc3sccc3Cc3ccccc32)cn1 [Example 2, N-[5-[(9,10-Dihydro-4H-thieno[2,3-c][1]benzazepin-9-yl)carbonyl]-2-pyridinyl]-5-fluoro-2-methylbenzamide]",,pIC50 ([1]; rat kidney medullary V2 receptors): 7.54
"Cc1ccc(F)cc1C(=O)Nc1ccc(C(=O)N2Cc3ccccc3Oc3ncccc32)cn1 [Example 4, N-[5-(Pyrido[2,3-b][1,4]benzoxazepin-5(6H)-ylcarbonyl)-2-pyridinyl]-5-fluoro-2-methylbenzamide]",20,
CCCCOc1ccc(C(=O)N2Cc3ccccc3Cc3ccccc32)cc1 [Example 24],,"inhibition at 10 µM ([2]; ** human V2, LV-2 membranes, 10 μM): 26%"
"O=C(c1ccc(-c2ccccc2)cc1)N1Cc2ccccc2Oc2ccccc21 [Example 26, 10-([1,1'-Biphenyl]-4-ylcarbonyl)-10,11-dihydrodibenz[b,f][1,4]oxazepine]",29,
"O=C(c1ccc(-c2ccccc2)cc1)N1Cc2sccc2Cc2ccccc21 [Example 27, 9-([1,1'-Biphenyl]-4-ylcarbonyl)-9,10-dihydro-4H-thieno[2,3-c][1]benzazepine]",,"pIC50 ([2]; ** human V2 receptor, LV-2 membranes): 5.74"
"O=C(c1ccccc1)c1ccc(C(=O)N2Cc3ccccc3Oc3ccccc32)cc1 [Example 32, 10-(4-Benzoylbenzoyl)-10,11-dihydrodibenz[b,f][1,4]oxazepine]",33,
Cc1ccc(F)cc1C(=O)Nc1ccc(C(=O)N2Cc3ccccc3CCc3ccccc32)cn1 [Example 45],62,
